For one assay, the target named is α1 adrenoceptors. Briefly: Inhibition of 3H-prazosin binding to α1 adrenoceptors in rat brain in vitro. The following applies: 3H-Prazosin 0.25 nM, rat brain, 25° C., 20 min; read-out: Receptor Binding; IC50 α1 3H-Praz. The method, then: INHIBITION OF ^3 H-PRAZOSIN BINDING TO α1 ADRENOCEPTORS IN RAT BRAIN IN VITRO
Method and results in Hyttel & Larsen, J. Neurochem, 44, 1615-1622, 1985; Skarsfeldt & Hyttel, Eur. J. Pharmacol. 125, 323-340, 1986.
Male Wistar (Mol:Wist) rats (125-200 g) are sacrificed and brain tissue is dissected and weighed. The tissue is homogenized (Ultra Turrax, 10 sec.) in 10 ml of ice-cold […] Tris buffer pH 7,7 (at 25° C.). The homogenate is centrifuged twice at 20,000 g for 10 min. at 4° C. with rehomogenization of the pellet in 10 ml ice-cold buffer. The final pellet is homogenized in 400 vol (w/v) ice-cold buffer.
Incubation tubes kept on ice in triplicate receive 100 μl of drug solution in water (or water for total binding) and 4000μl of tissue suspension (final tissue content corresponds to 10 mg original tissue). The binding experiment is initiated by addition of 100 μl of ^3 H-Prazosin (final concentration 0.25 nM) and by placing the tubes in a 25° C. water bath. After incubation for 20 min. the samples are filtered under vacuum (0-50 mBar) through Whatman GF/F filters (25 mm). The tubes are rinsed with 5 ml ice-cold buffer which then are poured on the filters. Thereafter, the filters are washed with 5 ml of buffer. The filters are placed in counting vials and 4 ml of appropriate scintillation fluid (e.g. Picofluor™15) are added. After shaking for 1 h and storage 2 hrs in the dark the content of radioactivity is determined by liquid scintillation counting. Specific binding is obtained by subtracting the nonspecific binding in the presence of 1 μM of Prazosin.
(§1) For determination of the inhibition of binding five concentrations of drugs covering 3 decades are used.
The measured cpm are plotted against drug concentration on semilogarithmic paper and the best fitting S-shaped curve is drawn. The IC50 value is determined as the concentration at which the binding is 50% of the total binding in control samples minus the nonspecific binding in the presence of 1 μM of Prazosin.
^3 H-Prazosin=[furoyl-5-^3 H]-Prazosin from New England Nuclear, specific activity approximately 20 Ci/mmol.

Another assay addresses T1, 5-HT2 receptors (Rattus norvegicus, UniProt P14842).
T1 construct: cortical tissue is dissected and weighed; from tissue; host or cells: cortex of male Wistar rats, crude membranes
Briefly: Inhibition of 3H-ketanserin binding to 5-HT2 receptors in rat cortex in vitro. The following applies: 3H-Ketanserin 0.5 nM, rat cortex, 37° C., 30 min; read-out: Receptor Binding; IC50 5-HT2 3H-Ket. The method, then: Method in Hyttel, Pharmacology & Toxicology, 61, 126-129, 1987.
Male Wistar (Mol:Wist) rats (125-250 g) are sacrificed and cortical tissue is dissected and weighed. The tissue is homogenized (Ultra Turrax, 10 sec.) in 10 ml of ice-cold 50 mM tris buffer pH 7.7 (at 25° C.). The centrifuge glassware used in this step has been rinsed by sonication for 10 min. in ethanol. The homogenate is centrifuged twice at 20,000 g for 10 min. at 4° C. with rehomogenization of the pellet in 10 ml ice-cold buffer. The final pellet is homogenized in 500 vol (w/v) ice-cold buffer.
Incubation tubes kept on ice in triplicate receive 100 μl of drug solution in water (or water for total binding) and 2000 μl of tissue suspension (final tissue content corresponds to 4 mg original tissue). […] After incubation for 30 min. the samples are filtered under vacuum (0-50 mBar) through Whatman GF/F filters (25 mm). The tubes are rinsed with 5 ml ice-cold buffer which are then poured on the filters. Thereafter, the filters are washed with 2×5 ml of buffer. The filters are placed in counting vials and 4 ml of appropriate scintillation fluid (e.g. Picofluor™15) are added. After shaking for 1 h and storage 2 hrs in the dark the content of radioactivity is determined by liquid scintillation counting. Specific binding is obtained by subtracting the nonspecific binding in the presence of 1 μM mianserin.
as §1
The IC50 value is determined as the concentration at which the binding is 50% of the total binding in control samples minus the nonspecific binding in the presence of 1 μM mianserin.

The target of another assay is T2, dopamine D-2 receptors (Rattus norvegicus, UniProt P61169).
T2 construct: striatal tissue is dissected and weighed; from tissue; host or cells: corpus striatum of male Wistar rats, crude membranes
Briefly: Inhibition of 3H-spiperone binding to dopamine D-2 receptors in rat corpus striatum in vitro. The following applies: 3H-spiperone 0.5 nM, rat corpus striatum, 37° C., 10 min; read-out: Receptor Binding; IC50 DA D-2 3H-Spi. The method, then: INHIBITION OF ^3 H-SPIPERONE BINDING TO DOPAMINE D-2 RECEPTORS IN RAT CORPUS STRIATUM IN VITRO
By this method the inhibition by drugs of the binding of ^3 H-spiperone (0.5 nM) to dopamine D-2 receptors in membranes from rat corpus striatum is determined in vitro.
Male Wistar (Mol:Wistar) rats (125-250 g) are sacrificed and striatal tissue is dissected and weighed. The tissue is homogenized (Ultra Turrax, 10 sec.) in 10 ml of ice-cold 50 mM K-phosphate buffer pH 7.4 (at 25° C.). The homogenate is centrifuged twice at 20,000 g for 10 min. at 4° C. with rehomogenization of the pellet in 10 ml ice-cold buffer. The final pellet is homogenized in 1300 vol (w/v) ice-cold buffer.
Incubation tubes kept on ice in triplicate receive 100 μl of drug solution in water (or water for total binding) and 4000 μl of tissue suspension (final tissue content corresponds to 3.08 mg original tissue). The binding experimental is initiated by addition of 100 μl of ^3 H-spiperone (final concentration 0.5 nM) and by placing the tubes in a 37° C. water bath. After incubation for 10 min. the samples are filtered under vacuum (0-50 mBar) through Whatman GF/F filters (25 mm). The tubes are rinsed with 5 ml ice-cold buffer which are then poured on the filters. Thereafter, the filters are washed with 2×5 ml of buffer. The filters are placed in counting vials and 4 ml of appropriate scintillation fluid (e.g. Picofluor ™15) are added. After shaking for 1 h and storage 2 hrs in the dark the content of radioactivity is determined by liquid scintillation counting. Specific binding is obtained by subtracting the nonspecific binding in the presence of 10 μM of 6,7-ADTN.
as §1
^3 H-Spiperone=[phenyl-4-^3 H]-spiperone from Amersham International plc. England, specific activity 15-25 Ci/mmol.

The record followed here is patent publication US5643784A, “Indan derivatives” (H, Lundbeck A/S, priority 1990, dated 1997).

T1 sequence (P14842 whole entry): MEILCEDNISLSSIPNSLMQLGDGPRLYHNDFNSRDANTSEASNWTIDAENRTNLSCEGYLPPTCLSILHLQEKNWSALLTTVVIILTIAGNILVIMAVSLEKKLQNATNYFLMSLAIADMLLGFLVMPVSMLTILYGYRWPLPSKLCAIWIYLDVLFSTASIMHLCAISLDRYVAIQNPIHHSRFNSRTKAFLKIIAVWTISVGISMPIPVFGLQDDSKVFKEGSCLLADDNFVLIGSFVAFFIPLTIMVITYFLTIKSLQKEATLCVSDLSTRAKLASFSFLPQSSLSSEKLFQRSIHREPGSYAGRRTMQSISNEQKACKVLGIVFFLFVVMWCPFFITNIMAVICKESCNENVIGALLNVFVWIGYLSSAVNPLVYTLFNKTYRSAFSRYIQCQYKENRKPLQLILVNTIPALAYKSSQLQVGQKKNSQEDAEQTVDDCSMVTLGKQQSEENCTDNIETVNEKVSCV
T2 sequence (P61169 whole entry): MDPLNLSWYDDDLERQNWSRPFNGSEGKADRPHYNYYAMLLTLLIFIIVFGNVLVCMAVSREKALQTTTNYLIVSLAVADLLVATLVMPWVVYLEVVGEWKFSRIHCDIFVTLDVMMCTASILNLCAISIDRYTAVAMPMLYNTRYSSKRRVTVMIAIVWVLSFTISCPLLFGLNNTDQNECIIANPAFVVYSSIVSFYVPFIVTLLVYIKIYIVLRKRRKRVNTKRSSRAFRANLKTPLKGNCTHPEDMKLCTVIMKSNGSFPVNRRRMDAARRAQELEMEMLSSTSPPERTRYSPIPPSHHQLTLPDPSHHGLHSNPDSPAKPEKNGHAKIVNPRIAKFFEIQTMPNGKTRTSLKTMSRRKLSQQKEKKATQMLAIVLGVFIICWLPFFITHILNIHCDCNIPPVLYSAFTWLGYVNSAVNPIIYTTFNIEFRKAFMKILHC

`O=C1N(CCN2CCN([C@@H]3C[C@@H](c4ccc(F)cc4)c4cc(Cl)ccc43)CC2)CCN1c1ccccc1` (relative stereo) [Compound 17, Trans-1-[2-[4-[5-chloro-3-(4-fluorophenyl)-2,3-dihydro-1H-inden-1-yl]piperazin-1-yl]ethyl]-3-phenyl-2-imidazolidinone]: the IC50 on α1 adrenoceptors came out at 310 nM; at 5-HT2 receptors it was 44 nM; on dopamine D-2 receptors it was 300 nM.

`CN1CCN(CCN2CCN([C@@H]3C[C@@H](c4ccc(F)cc4)c4cc(Cl)ccc43)CC2)C1=O` (relative stereo) [Compound 18, Trans-1-[2-[4-[5-chloro-3-(4-fluorophenyl)-2,3-dihydro-1H-inden-1-yl]piperazin-1-yl]ethyl]-3-methyl-2-imidazolidinone]: the IC50 was determined as 600 nM on α1 adrenoceptors, 2.8 nM on 5-HT2 receptors and 190 nM at dopamine D-2 receptors.

With `CCN1CCN(CCN2CCN([C@@H]3C[C@@H](c4ccc(F)cc4)c4cc(Cl)ccc43)CC2)C1=O` (relative stereo) [Compound 19, Trans-1-[2-[4-[5-chloro-3-(4-fluorophenyl)-2,3-dihydro-1H-inden-1-yl]piperazin-1-yl]ethyl]-3-ethyl-2-imidazolidinone], the IC50 worked out at 240 nM at α1 adrenoceptors, 2.6 nM at 5-HT2 receptors and 260 nM on dopamine D-2 receptors.

As to `CC(C)N1CCN(CCN2CCN([C@@H]3C[C@@H](c4ccccc4)c4cc(Cl)ccc43)CC2)C1=O` (relative stereo) [Compound 20, Trans-1-[2-[4-[5-chloro-3-phenyl-2,3-dihydro-1H-inden-1-yl]piperazin-1-yl]ethyl]-3-isopropyl-2-imidazolidinone], the IC50 stood at 510 nM on α1 adrenoceptors, 9.9 nM at 5-HT2 receptors and 750 nM at dopamine D-2 receptors.

For the molecule `CC(C)N1CCN(CCN2CCN([C@@H]3C[C@@H](c4ccccc4F)c4cc(Cl)ccc43)CC2)C1=O` (relative stereo) [Compound 21, Trans-1-[2-[4-[5-chloro-3-(2-fluorophenyl)-2,3-dihydro-1H-inden-1-yl]piperazin-1-yl]ethyl]-3-isopropyl-2-imidazolidinone], the IC50 on α1 adrenoceptors stood at 670 nM; at 5-HT2 receptors, 3.5 nM; at dopamine D-2 receptors, 920 nM.

Turning to `CSc1ccc2c(c1)[C@H](c1ccc(F)cc1)C[C@H]2N1CCN(CCN2CCNC2=O)CC1` (relative stereo) [Compound 22, Trans-1-[2-[4-[3-(4-fluorophenyl)-5-(methylthio)-2,3-dihydro-1H-inden-1-yl]piperazin-1-yl]ethyl]-2-imidazolidinone], the figures for the IC50 on α1 adrenoceptors, on 5-HT2 receptors and on dopamine D-2 receptors were 240 nM, 3.5 nM and 1100 nM, respectively.

On to `CSc1ccc2c(c1)[C@H](c1ccc(F)cc1)C[C@H]2N1CCN(CCN2CCN(C(C)C)C2=O)CC1` (relative stereo) [Compound 23, Trans-1-[2-[4-[3-(4-fluorophenyl)-5-(methylthio)-2,3-dihydro-1H-inden-1-yl]piperazin-1-yl]ethyl]-3-isopropyl-2-imidazolidinone], for which the IC50 was found to be 250 nM on α1 adrenoceptors, 4 nM at 5-HT2 receptors and 720 nM at dopamine D-2 receptors.

Turning to `CC(C)N1CCN(CCN2CCN([C@@H]3C[C@@H](c4ccc(F)cc4)c4cc(Br)ccc43)CC2)C1=O` (relative stereo) [Compound 24, Trans-1-[2-[4-[5-bromo-3-(4-fluorophenyl)-2,3-dihydro-1H-inden-1-yl]piperazin-1-yl]ethyl]-3-isopropyl-2-imidazolidinone], the IC50 on α1 adrenoceptors stood at 270 nM; at 5-HT2 receptors, 6.4 nM; at dopamine D-2 receptors, 240 nM.

Take `Cc1ccc([C@@H]2C[C@@H](N3CCN(CCN4CCN(C(C)C)C4=O)CC3)c3ccc(Cl)cc32)cc1` (relative stereo) [Compound 26, Trans-1-[2-[4-[5-chloro-3-(4-methylphenyl)-2,3-dihydro-1H-inden-1-yl]piperazin-1-yl]ethyl]-3-isopropyl-2-imidazolidinone]: the IC50 at α1 adrenoceptors turned out to be 60 nM; at 5-HT2 receptors, 11 nM; on dopamine D-2 receptors, 450 nM.

On to `CC(C)N1CCN(CCN2CCN([C@@H]3C[C@@H](c4ccc(Cl)cc4)c4cc(Cl)ccc43)CC2)C1=O` (relative stereo) [Compound 27, Trans-1-[2-[4-[5-chloro-3-(4-chlorophenyl)-2,3-dihydro-1H-inden-1-yl]piperazin-1-yl]ethyl]-3-isopropyl-2-imidazolidinone], for which the IC50 at α1 adrenoceptors was found to be 180 nM; on 5-HT2 receptors, 15 nM; at dopamine D-2 receptors, 280 nM.

`CC(C)N1CCN(CCN2CCN([C@@H]3C[C@@H](c4cccc(F)c4)c4cc(Cl)ccc43)CC2)C1=O` (relative stereo) [Compound 28, Trans-1-[2-[4-[5-chloro-3-(3-fluorophenyl)-2,3-dihydro-1H-inden-1-yl]piperazin-1-yl]ethyl]-3-isopropyl-2-imidazolidinone]: the IC50 at α1 adrenoceptors stood at 970 nM; on 5-HT2 receptors, 26 nM; at dopamine D-2 receptors, 490 nM.

Consider `Fc1ccc([C@@H]2C[C@@H](N3CCN(CCN4CCNC4=S)CC3)c3ccc(Cl)cc32)cc1` (relative stereo) [Compound 31, Trans-1-[2-[4-[5-chloro-3-(4-fluorophenyl)-2,3-dihydro-1H-inden-1-yl]piperazin-1-yl]ethyl]-2-imidazolidinthione], for which the IC50 at α1 adrenoceptors is 52 nM; on 5-HT2 receptors it was 1.5 nM; on dopamine D-2 receptors it was 67 nM.

As to `CC(C)N1CCN(CCN2CCN([C@@H]3C[C@@H](c4ccc(F)cc4)c4cc(Cl)ccc43)CC2)C1=S` (relative stereo) [Compound 36, Trans-1-[2-[4-[5-chloro-3-(4-fluorophenyl)-2,3-dihydro-1-H-inden-1-yl]piperazin-1-yl]ethyl]-3-isopropyl-2-imidazolidinthione], the values for the IC50 at α1 adrenoceptors, at 5-HT2 receptors and at dopamine D-2 receptors were 69 nM, 3.6 nM and 260 nM, respectively.
